Results published in patent publication US11214803B2, “Modulators of YAP1 expression” (Ionis Pharmaceuticals, Inc., priority 2019, dated 2022).
Strand notation (5' to 3'): a small letter for the sugar, then the base; units joined by * are phosphorothioate-linked, units joined directly phosphodiester-linked; [ ] holds rarer units or linkages, { } end groups; capitals alone tell only the bases. k = constrained ethyl (cEt); [5mC] = 5-methylcytosine; d = 2'-deoxy (DNA)

These substances were tested on Yap1 mRNA (assay: Antisense inhibition of human Yap1 in A-431 cells by cEt gapmers, single dose (Example 2, RTS4814)). Details: A-431 cells, 5,000 cells per well, free uptake, 2,000 nM modified oligonucleotide, approx. 48 hours, RTS4814, normalized to RIBOGREEN; Table 4; asterisk (*) = targets amplicon region of primer probe set.
Assay type: cell-based
Summary of the method: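 Each 16-nucleoside gapmer (ten-deoxy gap, three-cEt wings) is tested once at 2,000 nM in A-431 cells by free uptake. Yap1 mRNA after about 48 hours is measured by quantitative RT-PCR and expressed relative to untreated control.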
With “716574 (kT*kA*k[5mC]*dA*d[5mC]*dT*dG*dT*dA*dT*dA*dT*dG*kT*kT*k[5mC]; antisense) [Compound 716574]” the “YAP1 (% UTC)” value was 91 % UTC.
In the case of “716496 (kG*kA*kA*dG*dA*dG*dA*dT*dT*dT*dT*dA*dT*kG*k[5mC]*k[5mC]; antisense) [Compound 716496]”, the “YAP1 (% UTC)” value is reported as 19 % UTC.

Same assay, conditions: Table 5; A-431 cells, 5,000 cells per well, free uptake, 2,000 nM modified oligonucleotide, approx. 48 hours; RTS4814; normalized to RIBOGREEN; Yap1 mRNA relative to untreated control cells
“716398 (kT*kA*kT*dT*d[5mC]*d[5mC]*dG*d[5mC]*dA*dT*dT*dG*d[5mC]*k[5mC]*kT*kG; antisense) [Compound 716398]” was tested, and the “YAP1 (% UTC)” value was 70 % UTC.
For “716464 (kT*kA*k[5mC]*dT*dT*d[5mC]*dA*dA*dA*d[5mC]*dA*dT*d[5mC]*kT*kG*k[5mC]; antisense) [Compound 716464]”, the “YAP1 (% UTC)” value was 62 % UTC.
For “716431 (kA*kA*kT*dG*dA*dT*dT*dG*dG*dT*dG*dA*dA*k[5mC]*kA*kT; antisense) [Compound 716431]”, the “YAP1 (% UTC)” value was 55 % UTC.
For “716530 (antisense kA*k[5mC]*kA*dT*d[5mC]*dA*dA*dG*dG*d[5mC]*dT*dA*dT*kG*kA*kT) [Compound 716530]”, the “YAP1 (% UTC)” value was 83 % UTC.
In the case of “716371 (kT*kG*kG*dA*dG*dT*d[5mC]*dA*dG*dG*dG*d[5mC]*dT*k[5mC]*k[5mC]*kT; antisense) [Compound 716371]”, the “YAP1 (% UTC)” value is reported as 115 % UTC.
With “716422 (kA*kG*kT*dA*dT*d[5mC]*dT*dT*dG*d[5mC]*dT*dG*dG*kA*k[5mC]*kG; antisense) [Compound 716422]” the “YAP1 (% UTC)” value was 39 % UTC.
For “716443 (kT*kT*kA*dT*dG*dT*dG*dA*d[5mC]*dT*dA*dA*dT*kG*kA*kT; antisense) [Compound 716443]”, the “YAP1 (% UTC)” value was 73 % UTC.

Same assay, conditions: Table 6; A-431 cells, 5,000 cells per well, free uptake, 2,000 nM modified oligonucleotide, approx. 48 hours; RTS4814; normalized to RIBOGREEN; Yap1 mRNA relative to untreated control cells
“716564 (k[5mC]*kT*kT*dT*dT*dG*dG*dG*d[5mC]*dA*dA*dA*dG*kT*kT*k[5mC]; antisense) [Compound 716564]” was tested, and the “YAP1 (% UTC)” value was 103 % UTC.
“716429 (kT*kG*kG*d[5mC]*dA*dT*d[5mC]*d[5mC]*dA*dT*d[5mC]*dA*dT*k[5mC]*k[5mC]*kA; antisense) [Compound 716429]” was tested, and the “YAP1 (% UTC)” value was 28 % UTC.
In the case of “716351 (kG*kG*kT*d[5mC]*dT*dG*dG*d[5mC]*dG*dG*d[5mC]*dT*dG*k[5mC]*kG*k[5mC]; antisense) [Compound 716351]”, the “YAP1 (% UTC)” value is reported as 112 % UTC.
For “716360 (k[5mC]*kT*kG*d[5mC]*d[5mC]*d[5mC]*dG*dG*dG*dA*dT*d[5mC]*d[5mC]*kA*kT*kG; antisense) [Compound 716360]”, the “YAP1 (% UTC)” value was 118 % UTC.

Same assay, conditions: Table 19; A-431 cells, 5,000 cells per well, free uptake, 2,000 nM modified oligonucleotide, approx. 48 hours; RTS4814; normalized to RIBOGREEN; Yap1 mRNA as percent of untreated control
With “1075429 (antisense k[5mC]*kT*kT*dT*dA*d[5mC]*dT*dA*dT*d[5mC]*dT*dG*dG*kG*kT*k[5mC]) [Compound 1075429]” the “YAP1 (% UTC)” value was 23 % UTC.

Same assay, conditions: Table 20; Yap1 mRNA, percent of untreated control; 3-10-3 cEt gapmers targeting SEQ ID NO.: 1 and 2
“1076358 (kG*kT*kT*dT*dA*dA*d[5mC]*dA*dA*dA*d[5mC]*dT*dT*kG*kT*kA; antisense) [Compound 1076358]” was tested, and the “YAP1 (% UTC)” value was 43 % UTC.
With “1075590 (k[5mC]*kA*kT*d[5mC]*dA*dA*dA*dA*dT*dT*dA*dG*d[5mC]*kA*kG*kG; antisense) [Compound 1075590]” the “YAP1 (% UTC)” value was 50 % UTC.

Same assay, conditions: Table 21; Yap1 mRNA, percent of untreated control; 3-10-3 cEt gapmers targeting SEQ ID NO.: 1 and 2
For “1074919 (antisense k[5mC]*kT*k[5mC]*dA*dA*dG*dT*dT*dA*d[5mC]*dA*dT*d[5mC]*k[5mC]*k[5mC]*kG) [Compound 1074919]”, the “YAP1 (% UTC)” value was 48 % UTC.
With “1075815 (kG*kT*kA*dT*dA*dA*dA*dG*d[5mC]*dA*dG*dG*dG*k[5mC]*kA*kT; antisense) [Compound 1075815]” the “YAP1 (% UTC)” value was 36 % UTC.

Same assay, conditions: Table 23; Yap1 mRNA as percent of untreated control; 3-10-3 cEt gapmers; single dose
In the case of “1076105 (kT*kA*k[5mC]*dG*dA*dA*dA*dT*dA*dG*dT*dA*dA*k[5mC]*kT*kG; antisense) [Compound 1076105]”, the “YAP1 (% UTC)” value is reported as 13 % UTC.
In the case of “1076233 (k[5mC]*k[5mC]*kA*dA*dT*dA*dA*dA*dG*d[5mC]*dA*dA*dG*kT*kA*kG; antisense) [Compound 1076233]”, the “YAP1 (% UTC)” value is reported as 13 % UTC.
With “1074729 (antisense kA*k[5mC]*kA*d[5mC]*dT*dG*dA*dG*dG*dT*dA*dT*dA*kA*k[5mC]*kT) [Compound 1074729]” the “YAP1 (% UTC)” value was 9 % UTC.

Same assay, conditions: Table 24; Yap1 mRNA as percent of untreated control; 3-10-3 cEt gapmers targeting SEQ ID NO.: 1, and 2
In the case of “1074442 (kG*kA*k[5mC]*d[5mC]*dA*dG*dT*dA*dA*dA*dT*d[5mC]*dA*kT*kG*kT; antisense) [Compound 1074442]”, the “YAP1 (% UTC)” value is reported as 21 % UTC.

Same assay, conditions: Table 25; Yap1 mRNA as percent of untreated control; 3-10-3 cEt gapmers targeting SEQ ID NO.: 1, and 2
With “1075147 (antisense kT*kA*kT*dA*dA*dA*d[5mC]*d[5mC]*dT*dT*dA*d[5mC]*dA*kG*kT*kA) [Compound 1075147]” the “YAP1 (% UTC)” value was 57 % UTC.
For “1075723 (kT*kT*kA*dT*d[5mC]*d[5mC]*dT*dA*dT*d[5mC]*d[5mC]*d[5mC]*dT*kG*kG*kT; antisense) [Compound 1075723]”, the “YAP1 (% UTC)” value was 32 % UTC.
“1074315 (antisense kG*kA*kT*dT*dG*dA*dT*dA*dT*dT*d[5mC]*d[5mC]*dG*k[5mC]*kA*kT) [Compound 1074315]” was tested, and the “YAP1 (% UTC)” value was 3 % UTC.
In the case of “1076011 (kA*kT*kA*dT*dA*dA*dA*d[5mC]*dA*dA*dT*dA*dG*k[5mC]*kG*kA; antisense) [Compound 1076011]”, the “YAP1 (% UTC)” value is reported as 61 % UTC.
“1074987 (antisense kG*k[5mC]*k[5mC]*dG*d[5mC]*dG*dG*d[5mC]*dT*d[5mC]*d[5mC]*d[5mC]*dG*kA*kG*k[5mC]) [Compound 1074987]” was tested, and the “YAP1 (% UTC)” value was 94 % UTC.
For “1075915 (kA*kA*kT*dT*dT*dA*dG*dG*dA*dT*dG*d[5mC]*d[5mC]*kT*kT*kT; antisense) [Compound 1075915]”, the “YAP1 (% UTC)” value was 16 % UTC.

Same assay, conditions: Table 32; Yap1 mRNA, percent of untreated control; 3-10-3 cEt gapmers targeting SEQ ID NO.: 1, and 2
In the case of “1075698 (kG*kT*kT*dT*dA*dA*dT*dA*dA*dT*d[5mC]*d[5mC]*dA*kT*kG*k[5mC]; antisense) [compound 1075698]”, the “YAP1 (% UTC)” value is reported as 10 % UTC.
In the case of “1074226 (antisense k[5mC]*kT*kG*dT*d[5mC]*dG*dA*dA*dG*dA*dT*dG*d[5mC]*kT*kG*kA) [compound 1074226]”, the “YAP1 (% UTC)” value is reported as 10 % UTC.
For “1075602 (antisense kT*kA*kT*dT*dA*dT*dA*dA*dG*dT*d[5mC]*dT*dA*k[5mC]*kA*kA) [compound 1075602]”, the “YAP1 (% UTC)” value was 114 % UTC.
With “1076434 (k[5mC]*kT*kT*dT*dA*dG*dG*dT*dT*dT*dA*dT*dG*k[5mC]*k[5mC]*kT; antisense) [compound 1076434]” the “YAP1 (% UTC)” value was 25 % UTC.
“1074674 (antisense kT*kA*kT*dA*dG*dG*d[5mC]*dA*d[5mC]*dT*d[5mC]*d[5mC]*dT*kT*k[5mC]*k[5mC]) [compound 1074674]” was tested, and the “YAP1 (% UTC)” value was 22 % UTC.
In the case of “1076498 (kT*kT*kA*d[5mC]*dA*dA*dT*dA*d[5mC]*d[5mC]*dT*dT*dA*kT*kG*kA; antisense) [compound 1076498]”, the “YAP1 (% UTC)” value is reported as 70 % UTC.

Same assay, conditions: Table 33; Yap1 mRNA, percent of untreated control; 3-10-3 cEt gapmers targeting SEQ ID NO.: 1, and 2
In the case of “1075347 (antisense k[5mC]*kA*kT*dA*dG*dG*dT*dA*dG*dG*d[5mC]*dA*dA*k[5mC]*kA*kA) [compound 1075347]”, the “YAP1 (% UTC)” value is reported as 20 % UTC.

Same assay, conditions: Yap1 mRNA as percent of untreated control; A-431 cells; 3-10-3 cEt gapmers targeting SEQ ID NO.: 1, and 2; Table 30
“1075024 (antisense kA*k[5mC]*kT*dG*dA*dA*d[5mC]*dA*dA*dG*dT*dA*dT*k[5mC]*kT*kT) [compound 1075024]” was tested, and the “YAP1 (% UTC)” value was 32 % UTC.

Same assay, conditions: Yap1 mRNA as percent of untreated control; A-431 cells; 3-10-3 cEt gapmers targeting SEQ ID NO.: 1, and 2; Table 31
With “1075441 (antisense kG*kA*kA*dT*dT*dA*dA*dA*dG*d[5mC]*dA*dG*dT*kG*k[5mC]*k[5mC]) [compound 1075441]” the “YAP1 (% UTC)” value was 24 % UTC.
With “1074769 (kT*k[5mC]*kT*dT*dA*dT*d[5mC]*d[5mC]*d[5mC]*dA*dA*dT*dG*k[5mC]*kT*kA; antisense) [compound 1074769]” the “YAP1 (% UTC)” value was 12 % UTC.
In the case of “1076209 (k[5mC]*kA*kT*dT*dA*dG*d[5mC]*dA*d[5mC]*dA*d[5mC]*d[5mC]*dT*kT*kT*kT; antisense) [compound 1076209]”, the “YAP1 (% UTC)” value is reported as 12 % UTC.
“1075473 (kA*kG*kT*dT*dA*dT*dA*dA*d[5mC]*dT*dG*dT*dA*k[5mC]*kT*kA; antisense) [compound 1075473]” was tested, and the “YAP1 (% UTC)” value was 89 % UTC.
